Molecular target: T1, human TGR5 (Homo sapiens, UniProt Q8TDU6)
T1 construct: expressed in transfected cells; host or cells: HEK293
T1 sequence (Q8TDU6 1-330): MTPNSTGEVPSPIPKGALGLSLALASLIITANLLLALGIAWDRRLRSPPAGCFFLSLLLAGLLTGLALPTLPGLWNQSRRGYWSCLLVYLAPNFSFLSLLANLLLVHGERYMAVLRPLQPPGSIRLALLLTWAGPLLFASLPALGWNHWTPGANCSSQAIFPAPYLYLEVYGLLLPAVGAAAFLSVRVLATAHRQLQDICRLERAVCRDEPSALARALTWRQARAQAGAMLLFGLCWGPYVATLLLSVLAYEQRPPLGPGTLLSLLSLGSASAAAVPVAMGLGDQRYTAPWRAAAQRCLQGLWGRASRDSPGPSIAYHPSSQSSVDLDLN
Assay: Cell-based TGR5 assay (cAMP generation, HTRF)
Conditions: HEK293 cells stably transfected with human TGR5; cAMP by HTRF; 30 minutes at 37° C.; read-out: pEC50 Human TGR5 (converted)
Experimental: A primary cell-based assay utilized HEK293 cells stably transfected with a gene encoding human TGR5. Cells were treated with candidate TGR5 activators and assessed for increased intercellular levels of cAMP.
TGR5-mediated cAMP generation was measured using a homogeneous time resolved fluorescence (HTRF) detection method (Cisbio). Test compounds were dissolved in DMSO to a final concentration of 10 mM. Serial 3-fold dilutions of the stock solution were made in DMSO, and these solutions were diluted 100-fold into Hanks Balanced Salt Solution supplemented with 10 mM HEPES pH 7.4, 0.003% Tween 20 and 0.5 mM isobutyl methylxanthine. Five microliters of diluted test compounds were added to wells of a black 384 well plate.
Cells grown overnight at 37° C./5% CO2 were harvested and resuspended in Hanks Balanced Salt Solution containing 10 mM HEPES to a concentration of […]. Five microliters (2500 cells) were dispensed into each well of the 384 well plate containing compound dilutions and incubated at 37° C. for 30 minutes. Each compound was tested in duplicate at 12 concentrations ranging from 0.05 nM to 10 μM.
Following incubation with test compounds, cAMP was detected through the successive addition of 5 μL each of cAMP labeled with the modified allophyocyanin dye d2 (cAMP-d2) and cryptate-labeled anti-cAMP in lysis buffer, and reading HTRF per the manufacturer's instructions.
A standard curve was used to convert the raw HTRF data into [cAMP]. The concentration of cAMP was plotted against log [test compound] and the resulting curves were fit to a 3-parameter logistical equation using GraphPad Prism to determine pEC50 (the negative log of the EC50) and the magnitude of the response.

| SMILES | EC50 [nM] |
| --- | --- |
| COCCN(C[C@H](O)[C@@H](O)[C@H](O)[C@H](O)CO)C(=O)CCCC(C)c1ccc(C)c(CNC2(c3cnccc3-c3ccccc3OC3CC3)CC2)c1 (stereo partly drawn) [Compound I-357, 5-{3-[({1-[4-(2-cyclopropoxyphenyl)pyridin-3-yl]cyclopropyl}amino)methyl]-4-methylphenyl}-N-(2-methoxyethyl)-N-[(2S,3R,4R,5R)-2,3,4,5,6-pentahydroxyhexyl]hexanamide] | < 100 |
| CC(CCCCN)c1ccc(Cl)c(CNC2(c3cnccc3-c3ccccc3OC3CC3)CC2)c1 (single isomer, unassigned) [Compound I-244] | 126 to 1000 |
| CNC(=O)CN(C[C@H](O)[C@@H](O)[C@H](O)[C@H](O)CO)C(=O)CCCCc1cc(Cl)c(COC2(c3cnccc3-c3ccccc3OC3CC3)CC2)cc1Cl (stereo in doubt) [Compound I-219, 5-[2,5-dichloro-4-({1-[4-(2-cyclopropoxyphenyl)pyridin-3-yl]cyclopropoxy}methyl)phenyl]-N-[(methylcarbamoyl)methyl]-N-[(2S,3R,4R,5R)-2,3,4,5,6-pentahydroxyhexyl]pentanamide] | < 100 |
| O=C(NCCOCCS(=O)(=O)c1ccc(Cl)c(COC2(c3cnccc3-c3ccccc3OC3CC3)CC2)c1)NC[C@H](O)[C@@H](O)[C@H](O)[C@H](O)CO [Compound I-492, 1-[2-(2-[[4-Chloro-3-([l-[4-(2-cyclopropoxyphenyl)pyridin-3-yl]cyclopropoxy]methyl)benzene]sulfonyl]ethoxy)ethyl]-3-[(2S,3R,4R,5R)-2,3,4,5,6-pentahydroxyhexyl]urea] | < 100 |
| O=C(NCCCCC[S+]([O-])c1ccc(Cl)c(COC2(c3cnccc3-c3ccccc3OC3CC3)CC2)c1)[C@@H](O)[C@@H](O)[C@H](O)[C@@H](O)CO (stereo partly drawn) [Compound I-607, (2S,3S,4R,5S)-N-{5-[4-chloro-3-({1-[4-(2-cyclopropoxyphenyl)pyridin-3-yl]cyclopropoxy}methyl)benzenesulfinyl]pentyl}-2,3,4,5,6-pentahydroxyhexanamide] | < 100 |
| CC(C)(CCCc1cc(Cl)c(COC2(c3cnccc3-c3ccccc3OC3CC3)CC2)cc1Cl)C(=O)NC[C@H](O)[C@@H](O)[C@H](O)[C@H](O)CO [Compound I-144, 5-[2,5-dichloro-4-({1-[4-(2-cyclopropoxyphenyl)pyridin-3-yl]cyclopropoxy}methyl)phenyl]-2,2-dimethyl-N-[(2S,3R,4R,5R)-2,3,4,5,6-pentahydroxyhexyl]pentanamide] | 126 to 1000 |
| O=C(CN1CCN(C(=O)CCCCc2cc(Cl)c(COC3(c4cnccc4-c4ccccc4OC4CC4)CC3)cc2Cl)CC1)NC[C@H](O)[C@@H](O)[C@H](O)[C@H](O)CO [Compound I-98, 2-(4-{5-[2,5-dichloro-4-({1-[4-(2-cyclopropoxyphenyl)pyridin-3-yl]cyclopropoxy}methyl)phenyl]pentanoyl}piperazin-1-yl)-N-[(2S,3R,4R,5R)-2,3,4,5,6-pentahydroxyhexyl]acetamide] | < 100 |
| CCNC(=O)CCN(C[C@H](O)[C@@H](O)[C@H](O)[C@H](O)CO)C(=O)CCCC(C)c1ccc(C)c(CNC2(c3cnccc3-c3ccccc3OC3CC3)CC2)c1 (stereo partly drawn) [Compound I-365, 5-{3-[({1-[4-(2-cyclopropoxyphenyl)pyridin-3-yl]cyclopropyl}amino)methyl]-4-methylphenyl}-N-[2-(ethylcarbamoyl)ethyl]-N-[(2S,3R,4R,5R)-2,3,4,5,6-pentahydroxyhexyl]hexanamide] | 126 to 1000 |
| CN(C[C@H](O)[C@@H](O)[C@H](O)[C@H](O)CO)C(=O)CN1CCN(CCNC(=O)CCCCc2cc(Cl)c(COC3(c4cnccc4-c4ccccc4OC4CC4)CC3)cc2Cl)CC1 [Compound I-100, 5-[2,5-dichloro-4-({1-[4-(2-cyclopropoxyphenyl)pyridin-3-yl]cyclopropoxy}methyl)phenyl]-N-{2-[4-({methyl[(2S,3R,4R,5R)-2,3,4,5,6-pentahydroxyhexyl]carbamoyl}methyl)piperazin-1-yl]ethyl}pentanamide] | < 100 |
| Fc1ccccc1-c1ccncc1C1(NCc2cc(Cl)ccc2Cl)CC1 [Compound I-17, N-[(2,5-dichlorophenyl)methyl]-1-[4-(2-fluorophenyl)pyridin-3-yl]cyclopropan-1-amine] | 1260 to 10000 |
| CC(CCCN(CCS(C)(=O)=O)C(=O)[C@@H](O)[C@@H](O)[C@H](O)[C@@H](O)CO)c1ccc(Cl)c(COC2(c3cnccc3-c3ccccc3OC3CC3)CC2)c1 (stereo partly drawn) [Compound I-309, (2S,3S,4R,5S)-N-(4-[4-chloro-3-({1-[4-(2-cyclopropoxyphenyl)pyridin-3-yl]cyclopropoxy)methyl)phenyl]pentyl}-2,3,4,5,6-pentahydroxy-N-(2-methanesulfonylethyl)hexanamide] | < 100 |
| CC(CCCN(CCN1CCS(=O)(=O)CC1)C(=O)[C@@H](O)[C@@H](O)[C@H](O)[C@@H](O)CO)c1ccc(Cl)c(CNC2(c3cnccc3-c3ccccc3OC3CC3)CC2)c1 (stereo partly drawn) [Compound I-298, (2S,3S,4R,5S)-N-(4-{4-chloro-3-[({1-[4-(2-cyclopropoxyphenyl)pyridin-3-yl]cyclopropyl}amino)methyl]phenyl}pentyl)-N-[2-(1,1-dioxo-1λ^6,4-thiomorpholin-4-yl)ethyl]-2,3,4,5,6-pentahydroxyhexanamide] | < 100 |

The next lines start with the values.

| EC50 [nM] | SMILES |
| --- | --- |
| < 100 | Cc1ccc(SCCCCC(=O)NC[C@H](O)[C@@H](O)[C@H](O)[C@H](O)CO)nc1CNC1(c2cnccc2-c2ccccc2OC2CC2)CC1 [Compound I-645, 5-({6-[({1-[4-(2-cyclopropoxyphenyl)pyridin-3-yl]cyclopropyl}amino)methyl]-5-methylpyridin-2-yl}sulfanyl)-N-[(2S,3R,4R,5R)-2,3,4,5,6-pentahydroxyhexyl]pentanamide] |
| < 100 | CCc1ccc(C(C)CCCC(=O)NC[C@H](O)[C@@H](O)[C@H](O)[C@H](O)CO)cc1CNC1(c2cnccc2-c2ccccc2OC2CC2)CC1 (stereo partly drawn) [Compound I-349, 5-{3-[({1-[4-(2-cyclopropoxyphenyl)pyridin-3-yl]cyclopropyl}amino)methyl]-4-ethylphenyl}-N-[(2S,3R,4R,5R)-2,3,4,5,6-pentahydroxyhexyl]hexanamide] |
| 126 to 1000 | CS(=O)(=O)CCN(CCCSc1ccc(Cl)c(CNC2(c3cnccc3-c3ccccc3OC3CC3)CC2)c1)C(=O)[C@@H](O)[C@@H](O)[C@H](O)[C@@H](O)CO [Compound I-583, (2S,3S,4R,5S)-N-[3-({4-chloro-3-[({1-[4-(2-cyclopropoxyphenyl)pyridin-3-yl]cyclopropyl}amino)methyl]phenyl}sulfanyl)propyl]-2,3,4,5,6-pentahydroxy-N-(2-methanesulfonylethyl) hexanamide] |
| < 100 | O=C(CCCSc1ccc(Cl)c(CNC2(c3cnccc3-c3ccccc3OC3CC3)CC2)c1)NC[C@H](O)[C@@H](O)[C@H](O)[C@H](O)CO [Compound I-649, 4-({4-chloro-3-[({1-[4-(2-cyclopropoxyphenyl)pyridin-3-yl]cyclopropyl}amino)methyl]phenyl}sulfanyl)-N-[(2S,3R,4R,5R)-2,3,4,5,6-pentahydroxyhexyl]butanamide] |
| < 100 | CC(CCCC(=O)N(CCOCCO)C[C@H](O)[C@@H](O)[C@H](O)[C@H](O)CO)c1ccc(Cl)c(CNC2(c3cnccc3-c3ccccc3OC3CC3)CC2)c1 (stereo partly drawn) [Compound I-342, 5-{4-chloro-3-[({1-[4-(2-cyclopropoxyphenyl)pyridin-3-yl]cyclopropyl]amino)methyl]phenyl}-N-[2-(2-hydroxyethoxy)ethyl]-N-[(2S,3R,4R,5R)-2,3,4,5,6-pentahydroxyhexyl]hexanamide] |
| < 100 | CN(CCCCSc1ccc(Cl)c(CNC2(c3cnccc3-c3ccccc3OC3CC3)CC2)c1)C(=O)[C@@H](O)[C@@H](O)[C@H](O)[C@@H](O)CO [Compound I-506, (2S,3S,4R,5S)-N-[4-({4-chloro-3-[({1-[4-(2-cyclopropoxyphenyl)pyridin-3-yl]cyclopropyl}amino)methyl]phenyl}sulfanyl)butyl]-2,3,4,5,6-pentahydroxy-N-methylhexanamide] |
| < 100 | COCCN(CCCC(C)c1ccc(Cl)c(CNC2(c3cnccc3-c3ccccc3OC3CC3)CC2)c1)C(=O)[C@@H](O)[C@@H](O)[C@H](O)[C@@H](O)CO (stereo partly drawn) [Compound I-282, (2S,3S,4R,5S)-N-(4-{4-chloro-3-[({1-[4-(2-cyclopropoxyphenyl)pyridin-3-yl]cyclopropyl}amino)methyl]phenyl}pentyl)-2,3,4,5,6-pentahydroxy-N-(2-methoxyethyl)hexanamide] |

Reference: patent US12084472B2 (Ardelyx, Inc., priority 2015, dated 2024)
